Assay results: ChEMBL document CHEMBL1145305, “beta-Secretase inhibitors: modification at the P4 position and improvement of inhibitory activity in cultured cells” (Bioorg Med Chem Lett, 2006)
Values belong to the compound of their own block, whether it stands above or below them.

What was measured:
Beta-secretase 1 [1] = biological target: T1, Beta-secretase 1 (Homo sapiens, UniProt P56817); assay: Inhibition of BACE1 expressed in HEK293 cells at 100 uM; format: cell-based
Beta-secretase 1 [2] = biological target: T1, Beta-secretase 1; assay: Inhibition of human recombinant BACE1 at 0.2 uM
Beta-secretase 1 [3] = biological target: T1, Beta-secretase 1; assay: Inhibition of human recombinant BACE1 at 2 uM
Beta-secretase 1 [4] = biological target: T1, Beta-secretase 1; assay: Inhibition of human recombinant BACE1

T1 sequence (P56817 whole entry): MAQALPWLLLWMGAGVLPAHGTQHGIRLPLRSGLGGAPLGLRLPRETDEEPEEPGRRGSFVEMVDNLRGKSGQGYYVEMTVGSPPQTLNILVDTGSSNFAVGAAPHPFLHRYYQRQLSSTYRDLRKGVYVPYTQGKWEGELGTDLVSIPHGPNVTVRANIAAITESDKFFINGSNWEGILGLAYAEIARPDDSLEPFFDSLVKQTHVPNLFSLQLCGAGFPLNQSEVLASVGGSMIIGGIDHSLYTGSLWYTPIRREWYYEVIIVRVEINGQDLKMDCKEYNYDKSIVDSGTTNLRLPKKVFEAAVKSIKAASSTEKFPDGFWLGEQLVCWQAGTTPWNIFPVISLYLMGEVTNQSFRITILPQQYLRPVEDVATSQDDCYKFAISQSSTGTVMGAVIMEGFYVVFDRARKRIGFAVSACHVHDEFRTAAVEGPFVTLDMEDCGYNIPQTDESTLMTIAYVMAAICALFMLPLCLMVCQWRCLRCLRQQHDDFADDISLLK

SMILES: CC(C)C[C@H](NC(=O)[C@@H](NC(=O)[C@@H](N)CNC(=O)c1cc(O)cc(O)c1)C(C)C)C(=O)N[C@@H](Cc1ccccc1)[C@@H](O)C(=O)Nc1cccc(C(=O)O)c1
inhibition (Beta-secretase 1 [1]): 69%
inhibition (Beta-secretase 1 [2]): 60%
inhibition (Beta-secretase 1 [3]): 94%

SMILES: CC(C)C[C@H](NC(=O)[C@@H](NC(=O)[C@@H](N)CNC(=O)c1cccc(O)c1O)C(C)C)C(=O)N[C@@H](Cc1ccccc1)[C@@H](O)C(=O)Nc1cccc(C(=O)O)c1
inhibition (Beta-secretase 1 [1]): 0%
inhibition (Beta-secretase 1 [2]): 75%
inhibition (Beta-secretase 1 [3]): 89%

SMILES: CC(C)[C@H](NC(=O)[C@@H](N)CNC(=O)c1[nH]c(=O)[nH]c(=O)c1F)C(=O)N[C@@H](CC1CCCCC1)C(=O)N[C@@H](Cc1ccccc1)[C@@H](O)C(=O)Nc1cccc(-c2nnn[nH]2)c1
IC50 (Beta-secretase 1 [4]): 5.6 nM

SMILES: CC(C)[C@H](NC(=O)[C@@H](N)CNC(=O)c1nn[nH]n1)C(=O)N[C@@H](CC1CCCCC1)C(=O)N[C@@H](Cc1ccccc1)[C@@H](O)C(=O)Nc1cccc(-c2nn[nH]n2)c1
inhibition (Beta-secretase 1 [1]): 59%
inhibition (Beta-secretase 1 [2]): 98%
inhibition (Beta-secretase 1 [3]): 100%

SMILES: CC(C)[C@H](NC(=O)[C@@H](N)CNC(=O)c1cc(O)ccc1O)C(=O)N[C@@H](CC1CCCCC1)C(=O)N[C@@H](Cc1ccccc1)[C@@H](O)C(=O)Nc1cccc(-c2nn[nH]n2)c1
inhibition (Beta-secretase 1 [1]): 69%
inhibition (Beta-secretase 1 [2]): 92%
inhibition (Beta-secretase 1 [3]): 99%

SMILES: CC(C)C[C@H](NC(=O)[C@@H](NC(=O)[C@@H](N)CNC(=O)c1[nH]c(=O)[nH]c(=O)c1F)C(C)C)C(=O)N[C@@H](Cc1ccccc1)[C@@H](O)C(=O)Nc1cccc(-c2nnn[nH]2)c1
IC50 (Beta-secretase 1 [4]): 6.5 nM

SMILES: CC(C)[C@H](NC(=O)[C@@H](N)CNC(=O)c1nnn[nH]1)C(=O)N[C@@H](CC1CCCCC1)C(=O)N[C@@H](Cc1ccccc1)[C@@H](O)C(=O)Nc1cccc(-c2nnn[nH]2)c1
IC50 (Beta-secretase 1 [4]): 3.3 nM

SMILES: CC(C)C[C@H](NC(=O)[C@@H](NC(=O)[C@@H](N)CNC(=O)c1[nH]c(=O)[nH]c(=O)c1F)C(C)C)C(=O)N[C@@H](Cc1ccccc1)[C@@H](O)C(=O)Nc1cccc(-c2nn[nH]n2)c1
inhibition (Beta-secretase 1 [1]): 63%
inhibition (Beta-secretase 1 [2]): 98%
inhibition (Beta-secretase 1 [3]): 100%

SMILES: CC(C)C[C@H](NC(=O)[C@@H](NC(=O)[C@@H](N)CNC(=O)c1cc(O)ccc1O)C(C)C)C(=O)N[C@@H](Cc1ccccc1)[C@@H](O)C(=O)Nc1cccc(-c2nn[nH]n2)c1
inhibition (Beta-secretase 1 [1]): 65%
inhibition (Beta-secretase 1 [2]): 93%
inhibition (Beta-secretase 1 [3]): 99%

SMILES: CC(C)C[C@H](NC(=O)[C@@H](NC(=O)[C@@H](N)CNC(=O)c1nn[nH]n1)C(C)C)C(=O)N[C@@H](Cc1ccccc1)[C@@H](O)C(=O)Nc1cccc(-c2nn[nH]n2)c1
inhibition (Beta-secretase 1 [1]): 66%
inhibition (Beta-secretase 1 [2]): 98%
inhibition (Beta-secretase 1 [3]): 100%

SMILES: CC(C)[C@H](NC(=O)[C@@H](N)CNC(=O)c1[nH]c(=O)[nH]c(=O)c1F)C(=O)N[C@@H](CC1CCCCC1)C(=O)N[C@@H](Cc1ccccc1)[C@@H](O)C(=O)Nc1cccc(-c2nn[nH]n2)c1
inhibition (Beta-secretase 1 [1]): 84%
inhibition (Beta-secretase 1 [2]): 97%
inhibition (Beta-secretase 1 [3]): 100%

SMILES: CC(C)C[C@H](NC(=O)[C@@H](NC(=O)[C@@H](N)CNC(=O)c1nc(O)nc(O)c1F)C(C)C)C(=O)N[C@@H](Cc1ccccc1)[C@@H](O)C(=O)Nc1cccc(C(=O)O)c1
inhibition (Beta-secretase 1 [1]): 76%
inhibition (Beta-secretase 1 [2]): 82%
inhibition (Beta-secretase 1 [3]): 99%

Now from value to compound:

inhibition (Beta-secretase 1 [1]): 57%
inhibition (Beta-secretase 1 [2]): 49%
inhibition (Beta-secretase 1 [3]): 91%
SMILES: CC(C)C[C@H](NC(=O)[C@@H](NC(=O)[C@@H](N)CNC(=O)c1cccc(O)c1)C(C)C)C(=O)N[C@@H](Cc1ccccc1)[C@@H](O)C(=O)Nc1cccc(C(=O)O)c1

inhibition (Beta-secretase 1 [1]): 46%
inhibition (Beta-secretase 1 [2]): 54%
inhibition (Beta-secretase 1 [3]): 90%
SMILES: CC(C)C[C@H](NC(=O)[C@@H](NC(=O)[C@@H](N)CNC(=O)c1cc(O)nc(O)n1)C(C)C)C(=O)N[C@@H](Cc1ccccc1)[C@@H](O)C(=O)Nc1cccc(C(=O)O)c1

inhibition (Beta-secretase 1 [3]): 40%
SMILES: CC(C)C[C@H](NC(=O)[C@@H](NC(=O)[C@@H](N)CNC(=O)[C@@H]1CC(=O)NC(=O)N1)C(C)C)C(=O)N[C@@H](Cc1ccccc1)[C@@H](O)C(=O)Nc1cccc(C(=O)O)c1

inhibition (Beta-secretase 1 [1]): 29%
inhibition (Beta-secretase 1 [3]): 75%
SMILES: CC(C)C[C@H](NC(=O)[C@@H](NC(=O)[C@@H](N)CNC(=O)c1ccccc1O)C(C)C)C(=O)N[C@@H](Cc1ccccc1)[C@@H](O)C(=O)Nc1cccc(C(=O)O)c1

inhibition (Beta-secretase 1 [1]): 20%
inhibition (Beta-secretase 1 [2]): 59%
inhibition (Beta-secretase 1 [3]): 86%
SMILES: CC(C)C[C@H](NC(=O)[C@@H](NC(=O)[C@@H](N)CNC(=O)c1ccc(O)cc1O)C(C)C)C(=O)N[C@@H](Cc1ccccc1)[C@@H](O)C(=O)Nc1cccc(C(=O)O)c1

inhibition (Beta-secretase 1 [1]): 4%
inhibition (Beta-secretase 1 [2]): 38%
inhibition (Beta-secretase 1 [3]): 82%
SMILES: CC(C)C[C@H](NC(=O)[C@@H](NC(=O)[C@@H](N)CNC(=O)c1ccoc1)C(C)C)C(=O)N[C@@H](Cc1ccccc1)[C@@H](O)C(=O)Nc1cccc(C(=O)O)c1

inhibition (Beta-secretase 1 [1]): 73%
inhibition (Beta-secretase 1 [2]): 72%
inhibition (Beta-secretase 1 [3]): 99%
SMILES: CC(C)C[C@H](NC(=O)[C@@H](NC(=O)[C@@H](N)CNC(=O)c1nc(O)nc(O)c1I)C(C)C)C(=O)N[C@@H](Cc1ccccc1)[C@@H](O)C(=O)Nc1cccc(C(=O)O)c1

inhibition (Beta-secretase 1 [3]): 69%
SMILES: CC(C)C[C@H](NC(=O)[C@@H](NC(=O)[C@@H](N)CNC(=O)c1cc[nH]c1)C(C)C)C(=O)N[C@@H](Cc1ccccc1)[C@@H](O)C(=O)Nc1cccc(C(=O)O)c1

inhibition (Beta-secretase 1 [3]): 13%
SMILES: CC(C)C[C@H](NC(=O)[C@@H](NC(=O)[C@@H](N)CNC(=O)[C@H]1CC(=O)NC(=O)N1)C(C)C)C(=O)N[C@@H](Cc1ccccc1)[C@@H](O)C(=O)Nc1cccc(C(=O)O)c1

inhibition (Beta-secretase 1 [1]): 58%
inhibition (Beta-secretase 1 [2]): 84%
inhibition (Beta-secretase 1 [3]): 98%
SMILES: CC(C)C[C@H](NC(=O)[C@@H](NC(=O)[C@@H](N)CNC(=O)c1cc(O)ccc1O)C(C)C)C(=O)N[C@@H](Cc1ccccc1)[C@@H](O)C(=O)Nc1cccc(C(=O)O)c1
